Assay results as given in PMC12320245 (International Journal of Biological Sciences, 2025).
Entries after “also recorded” stand apart in the source; their conditions may differ.

Experiments:
[1] = test system: primary hippocampal neurons; test: Scratch injury: p-PKA immunofluorescence; format: cell-based, rat; conditions: 24 hours after scratch injury
Description: Primary hippocampal neurons were obtained from embryonic day 18 (E18) Sprague-Dawley rat embryos. Pregnant rats were anesthetized using 2-3% isoflurane in a gas mixture of 70% nitrous oxide and 30% oxygen. Following euthanasia, the hippocampi were carefully dissected, minced, and enzymatically dissociated using TrypLE Express (Gibco, NY, USA) for 10 minutes at 37°C. The tissue was further mechanically dissociated using fire-polished glass pipettes, and the resulting cell suspension was filtered through a 70 μm cell strainer to remove debris. Neurons were seeded at a density of 3 × 10^5 cells per well in 24-well plates pre-coated with poly-L-lysine (Sigma-Aldrich, Saint Louis, MO, USA). Cells were maintained in neurobasal medium supplemented with B-27 (Thermo Fisher Scientific, Waltham, MA, USA), GlutaMAX (Gibco), and penicillin-streptomycin. The cultures were incubated at 37.5°C in a humidified atmosphere containing 5% CO₂. After seven days of growth, neurons were fixed with 4% paraformaldehyde (PFA) for 15 minutes at room temperature and subsequently stored at 4°C until their further use for immunostaining.
A scratch injury model was used to mimic TBI in vitro. […] After the treatment period, neuronal damage and recovery were assessed using appropriate evaluation methods. […]

[2] = neuroinflammation or brain injury; cited from earlier work
[3] = test system: hippocampus of TBI rats; test: Controlled cortical impact TBI: hippocampal Western blot; format: in vivo, rat
Description: (§1) This study used male Sprague-Dawley rats weighing 300-350 g and aged 8 weeks, obtained from DBL Co. (Chungcheongbuk-do, Republic of Korea). The rats were housed in a controlled environment with a temperature of 20 ± 2 °C, a relative humidity of 55 ± 5%, and a 12-hour light/dark cycle. They were provided ad libitum access to food and water. To minimize stress associated with transportation, animals underwent a one-week acclimatization period before the start of the experiments. All experimental procedures were conducted in compliance with the guidelines of the National Institutes of Health for the care and use of laboratory animals and were approved by the Hallym University Institutional Animal Care and Use Committee (protocol # Hallym 2022-23, approved on July 15, 2022). This manuscript follows the principles outlined in the Animal research: reporting in vivo experiments (ARRIVE) guidelines.
A controlled cortical impact (CCI) model was used to induce TBI in rats. Animals were anesthetized with 1-1.5% isoflurane in a 30:70 oxygen-to-nitrous oxide mixture and securely positioned in a stereotaxic frame. A 3 mm craniotomy was performed using a portable drill at a site 2.8 mm lateral to the midline and 3.0 mm posterior to Bregma. TBI was induced using an Impact One™ Stereotaxic Impactor (Leica Biosystems) equipped with a 3 mm flat-tip, set to deliver an impact at a velocity of 5 m/s and a depth of 3 mm. Throughout the procedure, body temperature was maintained at 36-37.5°C using a homeothermic blanket system to prevent hypothermia. […] At designated time points (3 hours, 24 hours, or 2 weeks post-injury), animals were euthanized via transcardial perfusion with saline, followed by 4% paraformaldehyde (PFA). Brains were post-fixed in 4% PFA for 1 hour, cryoprotected in 30% sucrose, and sectioned at a 30 μm thickness using a cryostat microtome (CM1850; Leica, Wetzlar, Germany). Brain sections were stored in cryoprotectant solution at 4°C until further analysis.
Hippocampal samples were homogenized in a lysis buffer containing RIPA buffer (IBS-BR002, iNtRON, Republic of Korea), phosphatase inhibitor (Sigma, USA), and protease inhibitor (Sigma, USA). The homogenates were centrifuged at 14,000 × g for 20 minutes at 4°C, and the supernatants were collected. Protein concentrations were determined using the Bradford protein assay. For analysis, 25 μg of protein from each sample was mixed with SDS loading buffer, separated through SDS-PAGE, and transferred onto PVDF membranes. Membranes were blocked for 2 hours at room temperature with either 5% skim milk or 3% BSA to minimize nonspecific binding. Subsequently, the membranes were incubated overnight at 4°C with primary antibodies diluted in blocking buffer. The following primary antibodies were used: p-p38 MAPK (1:1000, Cell Signaling), p-eIF2α (1:1000, Cell Signaling), p-PERK (1:1000, Cell Signaling), LAMP2 (1:1000, Invitrogen), LC3B (1:1000, Invitrogen), IL-1β (1:500, Gene Tex), TNF-α (1:500, Abcam), and β-actin (1:10,000, Cell Signaling). After primary antibody incubation, membranes were washed in TBS-T (Bio-Rad) and incubated with secondary antibodies for 1 hour at room temperature. Signals were visualized using a chemiluminescence detection system and captured with a bioimaging instrument (Amersham Imager 680, Marlborough, USA).

[4] = test system: ipsilateral hippocampus of TBI rats; test: Controlled cortical impact TBI: IgG extravasation (BBB integrity); format: in vivo, rat; conditions: 24 hours and 2 weeks post-TBI
Description: as §1
A controlled cortical impact (CCI) model was used to induce TBI in rats. Animals were anesthetized with 1-1.5% isoflurane in a 30:70 oxygen-to-nitrous oxide mixture and securely positioned in a stereotaxic frame. A 3 mm craniotomy was performed using a portable drill at a site 2.8 mm lateral to the midline and 3.0 mm posterior to Bregma. […]

[5] = hippocampus, 24 hours after TBI
[6] = rat hippocampus, 24 hours post-TBI
[7] = rat hippocampus, 24 hours post-TBI, vs TBI-vehicle

CC(C)c1ccc2oc3nc(N)c(C(=O)O)cc3c(=O)c2c1 [AMX, amlexanox]
phosphorylation of PKA (immunofluorescence, Figure S2E-J) [1]: increasing the phosphorylation of PKA
crossing of the BBB [2]: can cross the BBB under pathological conditions
IL-1β expression (Western blot) [3, 5]: markedly reduced the expression of both cytokines
TNF-α expression (Western blot) [3, 5]: markedly reduced the expression of both cytokines
LAMP2 expression [3, 6]: preserved LAMP2 and LC3B expression
LC3B expression [3, 6]: preserved LAMP2 and LC3B expression
phosphorylation of PERK [3, 7]: significantly reduced the phosphorylation levels
phosphorylation of eIF2α [3, 7]: significantly reduced the phosphorylation levels
phosphorylation of p38 MAPK [3, 7]: significantly reduced the phosphorylation levels
IgG extravasation (BBB integrity) [4]: reduces this leakage; also recorded: significantly reduced IgG extravasation
